In patent US20240174727A1, “LONG-ACTING NATRIURETIC PEPTIDES AND USES THEREOF” (Eli Lilly and Company, priority 2022, published 2024) one finds EC50 data, which are given here for seven compounds.

Where two headings read alike, the source gives them in different places. Numbered stars: 1 amine (or outer) side, 2 acyl side, 3 side chain; on linkers, the order of the positions; unused ones are H or OH. Bridge positions count the residues as written; N and C are the ends. Square brackets hold non-standard residues; d marks the D form. Peptide text beside a SMILES is read from it. * marks the point of attachment. PEG24 = NCCOCCOCCOCCOCCOCCOCCOCCOCCOCCOCCOCCOCCOCCOCCOCCOCCOCCOCCOCCOCCOCCOCCOCCOCCC(=O)O; C20 diacid = O=C(O)CCCCCCCCCCCCCCCCCCC(=O)*; γGlu = O=C(O)[C@H](CCC(=O)[*:2])N[*:1]; 4Pal = N[C@@H](Cc1ccncc1)C(=O)O; Dap = NC[C@H](N)C(=O)O; CH2 = C([*:1])[*:2]; βAla = NCCC(=O)O

The assay has as its target T1, human NPRA (Homo sapiens, UniProt P16066).
T1 construct: Full-Length cDNA Cloning and Generation of Cell Lines Overexpressing Natriuretic Peptide Receptors (NPRs); expressed in transfected cells; host or cells: Jump-in T-Rex HEK293 cells, pJTI R4 CMV-TO MCS pA vector, tetracycline induction
T1 sequence (P16066 33-1061): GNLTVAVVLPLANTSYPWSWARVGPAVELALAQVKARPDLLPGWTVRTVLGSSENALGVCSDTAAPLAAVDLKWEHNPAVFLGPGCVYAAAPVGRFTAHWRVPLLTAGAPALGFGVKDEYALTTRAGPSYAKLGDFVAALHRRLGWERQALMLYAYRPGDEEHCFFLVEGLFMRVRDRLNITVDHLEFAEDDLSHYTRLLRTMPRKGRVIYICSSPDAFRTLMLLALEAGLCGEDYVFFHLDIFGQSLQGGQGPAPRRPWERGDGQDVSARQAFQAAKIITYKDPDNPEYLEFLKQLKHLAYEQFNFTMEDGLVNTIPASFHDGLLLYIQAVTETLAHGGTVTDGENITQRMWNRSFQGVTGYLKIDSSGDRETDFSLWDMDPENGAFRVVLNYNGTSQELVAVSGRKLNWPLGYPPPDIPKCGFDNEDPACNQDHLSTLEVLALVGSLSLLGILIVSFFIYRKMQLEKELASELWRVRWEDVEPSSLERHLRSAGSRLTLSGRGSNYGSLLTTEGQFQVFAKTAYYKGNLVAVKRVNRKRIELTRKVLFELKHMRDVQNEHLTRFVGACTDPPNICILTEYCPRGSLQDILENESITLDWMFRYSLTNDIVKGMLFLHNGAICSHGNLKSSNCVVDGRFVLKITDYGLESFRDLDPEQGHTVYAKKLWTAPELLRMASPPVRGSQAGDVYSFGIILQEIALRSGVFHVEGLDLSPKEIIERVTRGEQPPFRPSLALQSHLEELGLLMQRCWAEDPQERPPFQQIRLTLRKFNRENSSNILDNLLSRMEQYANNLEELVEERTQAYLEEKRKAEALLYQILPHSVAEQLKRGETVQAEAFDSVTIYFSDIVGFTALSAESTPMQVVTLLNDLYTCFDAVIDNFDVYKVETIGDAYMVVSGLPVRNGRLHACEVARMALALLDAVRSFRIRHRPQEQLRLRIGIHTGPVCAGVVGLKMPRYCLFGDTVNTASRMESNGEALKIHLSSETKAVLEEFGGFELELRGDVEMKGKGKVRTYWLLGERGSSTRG
Put plainly: Human NPRA cGMP activity assay (HTRF) in HEK293 cells overexpressing NPRA. In kind it is cell-based. Put shortly:
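cGMP measured by HTRF and scaled between buffer (minimum) and 100 nM amidated rat ANP (maximum). Polypeptides in 10-fold steps from 10 μM to 1 pM, 0.5% DMSO, 0.5 mM IBMX, 40 min at room temperature, on induced NPRA-overexpressing HEK293 cells.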
(In general: TR-FRET usually uses a lanthanide donor and a delayed reading to cut background.)

[1] abbreviates: cGMP Assay (EC50, pM) w/Casein hNPRA, assay buffer with 0.1% casein.
[2] abbreviates: assay buffer with 0.1% BSA, read-out: cGMP Assay (EC50, pM) w/BSA hNPRA.
Setting [3] is: assay buffer with 0.1% casein, read-out: cGMP Assay (EC50, pM) w/Casein hNPRA.
Setting [4] is: cGMP Assay (EC50, pM) w/BSA hNPRA, assay buffer with 0.1% BSA.

As to “{C20 diacid-γGlu}-EKEKEKG[PEG24]S[4Pal]RRSSCFGGRIDRIGHQSGLGCPSFRHGGPSSGAPPPS-NH2 (linker 15-31 via CH2) [Example 61]”, the EC50 under setting [1] was 912 pM.
Regarding `CC[C@H](C)[C@@H]1NC(=O)[C@H](CCCNC(=N)N)NC(=O)[C@H](CC(=O)O)NC(=O)[C@H]([C@@H](C)CC)NC(=O)[C@H](CCCNC(=N)N)NC(=O)[C@H](CCCCN)NC(=O)CNC(=O)[C@H](Cc2ccccc2)NC(=O)[C@@H](NC(=O)[C@H](CO)NC(=O)[C@H](CO)NC(=O)[C@H](CCCNC(=N)N)NC(=O)CCNC(=O)[C@H](CCCCN)NC(=O)[C@H](CCC(=O)O)NC(=O)CCOCCOCCOCCOCCOCCOCCOCCOCCOCCOCCOCCOCCOCCOCCOCCOCCOCCOCCOCCOCCOCCOCCOCCOCCNC(=O)CNC(=O)[C@H](CCCCN)NC(=O)[C@H](CCC(=O)O)NC(=O)[C@H](CCCCN)NC(=O)[C@H](CCC(=O)O)NC(=O)[C@H](CCCCN)NC(=O)[C@H](CCC(=O)O)NC(=O)CC[C@H](NC(=O)CCCCCCCCCCCCCCCCCCC(=O)O)C(=O)O)CSCSC[C@@H](C(=O)N2CCC[C@H]2C(=O)N[C@@H](CO)C(=O)N[C@@H](Cc2ccccc2)C(=O)N[C@@H](CCCNC(=N)N)C(=O)N[C@@H](Cc2c[nH]cn2)C(=O)NCC(=O)NCC(=O)N2CCC[C@H]2C(N)=O)NC(=O)CNC(=O)[C@H](CC(C)C)NC(=O)CNC(=O)[C@H](CO)NC(=O)[C@H](CCC(N)=O)NC(=O)[C@H](Cc2c[nH]cn2)NC(=O)CNC1=O` [Example 130] ({C20 diacid-γGlu}-EKEKEKG[PEG24]EK[βAla]RSSCFGKRIDRIGHQSGLGCPSFRHGGP-NH2; linker 15-31 via CH2), the EC50 under setting [2] was 1270 pM and the EC50 under setting [3] turned out to be 669 pM.
The compound `CC[C@H](C)[C@@H]1NC(=O)[C@H](CCCNC(=N)N)NC(=O)[C@H](CC(=O)O)NC(=O)[C@H]([C@@H](C)CC)NC(=O)[C@H](CCCNC(=N)N)NC(=O)CNC(=O)CNC(=O)[C@H](Cc2ccccc2)NC(=O)[C@@H](NC(=O)[C@H](CO)NC(=O)[C@H](CO)NC(=O)[C@H](CCCNC(=N)N)NC(=O)CCNC(=O)[C@H](CCCCN)NC(=O)[C@H](CCC(=O)O)NC(=O)CNC(=O)[C@H](CCCCN)NC(=O)[C@H](CCC(=O)O)NC(=O)[C@H](CCCCN)NC(=O)[C@H](CCC(=O)O)NC(=O)[C@H](CCCCN)NC(=O)[C@H](CCC(=O)O)NC(=O)CC[C@H](NC(=O)CCCCCCCCCCCCCCCCCCC(=O)O)C(=O)O)CSCSC[C@@H](C(=O)N2CCC[C@H]2C(=O)N[C@@H](CO)C(=O)N[C@@H](Cc2ccccc2)C(=O)N[C@@H](CCCNC(=N)N)C(=O)N[C@@H](Cc2c[nH]cn2)C(=O)NCC(=O)NCC(=O)N2CCC[C@H]2C(=O)N[C@@H](CO)C(=O)N[C@@H](CO)C(=O)NCC(=O)N[C@@H](C)C(=O)N2CCC[C@H]2C(=O)N2CCC[C@H]2C(=O)N2CCC[C@H]2C(=O)N[C@@H](CO)C(N)=O)NC(=O)CNC(=O)[C@H](CC(C)C)NC(=O)CNC(=O)[C@H](CO)NC(=O)[C@H](Cc2ccc(O)cc2)NC(=O)[C@H](Cc2c[nH]cn2)NC(=O)CNC1=O` [Example 56] showed an EC50 under setting [4] of 145000 pM.
Turning to `CC[C@H](C)[C@@H]1NC(=O)[C@H](CCCNC(=N)N)NC(=O)[C@H](CC(=O)O)NC(=O)[C@H]([C@@H](C)CC)NC(=O)[C@H](CCCNC(=N)N)NC(=O)CNC(=O)CNC(=O)[C@H](Cc2ccccc2)NC(=O)[C@@H](NC(=O)[C@H](CO)NC(=O)[C@H](CO)NC(=O)[C@H](CCCNC(=N)N)NC(=O)[C@H](CCCNC(=N)N)NC(=O)[C@H](Cc2ccncc2)NC(=O)[C@H](CO)NC(=O)COCCOCCNC(=O)COCCOCCNC(=O)COCCOCCNC(=O)COCCOCCNC(=O)COCCOCCNC(=O)COCCOCCNC(=O)CNC(=O)[C@H](CCCCN)NC(=O)[C@H](CCC(=O)O)NC(=O)[C@H](CCCCN)NC(=O)[C@H](CCC(=O)O)NC(=O)[C@H](CCCCN)NC(=O)[C@H](CCC(=O)O)NC(=O)CC[C@H](NC(=O)CCCCCCCCCCCCCCCCCCC(=O)O)C(=O)O)CSCSC[C@@H](C(=O)N2CCC[C@H]2C(=O)N[C@@H](CO)C(=O)N[C@@H](Cc2ccccc2)C(=O)N[C@@H](CCCNC(=N)N)C(=O)N[C@@H](Cc2c[nH]cn2)C(=O)NCC(=O)NCC(=O)N[C@@H](CCCCN)C(=O)N[C@@H](CO)C(=O)N[C@@H](CO)C(=O)NCC(=O)N[C@@H](C)C(=O)N2CCC[C@H]2C(=O)N2CCC[C@H]2C(=O)N2CCC[C@H]2C(=O)N[C@@H](CO)C(N)=O)NC(=O)CNC(=O)[C@H](CC(C)C)NC(=O)CNC(=O)[C@H](CO)NC(=O)[C@H](CCC(N)=O)NC(=O)[C@H](Cc2c[nH]cn2)NC(=O)CNC1=O` [Example 86], the EC50 worked out at 25200 pM under setting [2] and 1020 pM under setting [3].
Consider “{C20 diacid-γGlu}-EKEKEKGEKPRSSCFG[Dap]RIDRIGHQSGLGCPSFRHGSPSSGAPPPS-NH2 (linker 14-30 via CH2) [Example 137]”, for which the EC50 under setting [2] was determined as 155000 pM and the EC50 under setting [3] stood at 769 pM.
For “{C20 diacid-γGlu}-EKEKEKGEKPRSSCFG[Dap]RIDRIGHYSGLGCPSFRHGSPSSGAPPPS-NH2 (linker 14-30 via CH2) [Example 136]”, in that order: 100000 pM and 1380 pM.
For `CC[C@H](C)[C@@H]1NC(=O)[C@H](CCCNC(=N)N)NC(=O)[C@H](CC(=O)O)NC(=O)[C@H]([C@@H](C)CC)NC(=O)[C@H](CCCNC(=N)N)NC(=O)CNC(=O)CNC(=O)[C@H](Cc2ccccc2)NC(=O)[C@@H](NC(=O)[C@H](CO)NC(=O)[C@H](CO)NC(=O)[C@H](CCCNC(=N)N)NC(=O)CCNC(=O)[C@H](CCC(=O)O)NC(=O)[C@H](CCCCN)NC(=O)CNC(=O)[C@H](CCCCN)NC(=O)[C@H](CCC(=O)O)NC(=O)[C@H](CCCCN)NC(=O)[C@H](CCC(=O)O)NC(=O)[C@H](CCCCN)NC(=O)[C@H](CCC(=O)O)NC(=O)CC[C@H](NC(=O)CCCCCCCCCCCCCCCCCCC(=O)O)C(=O)O)CSCSC[C@@H](C(=O)N2CCC[C@H]2C(=O)N[C@@H](CO)C(=O)N[C@@H](Cc2ccccc2)C(=O)N[C@@H](CCCNC(=N)N)C(=O)N[C@@H](Cc2c[nH]cn2)C(=O)NCC(=O)NCC(=O)N2CCC[C@H]2C(=O)N[C@@H](CO)C(=O)N[C@@H](CO)C(=O)NCC(=O)N[C@@H](C)C(=O)N2CCC[C@H]2C(=O)N2CCC[C@H]2C(=O)N2CCC[C@H]2C(=O)N[C@@H](CO)C(N)=O)NC(=O)CNC(=O)[C@H](CC(C)C)NC(=O)CNC(=O)[C@H](CO)NC(=O)[C@H](Cc2ccc(O)cc2)NC(=O)[C@H](Cc2c[nH]cn2)NC(=O)CNC1=O` [Example 58], the EC50 is 104000 pM under setting [4] and 1220 pM under setting [1].
